Measured values as given in ChEMBL document CHEMBL1201862, “PubChem BioAssay data set” (2004).
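The compound was tested at five concentrations on cells cultured in 96-well plates, with a 48-hour exposure period. Abbreviation: GI50, concentration required for 50% inhibition of growth.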 Calls of active or inactive are those of the source. No stated cut-off is given here; in the data, active = GI50 up to about 1.1 µM and inactive = higher.

Legend:
Assay in all cases: NCI anticancer screen, dose series, 48 h
786-0 = tested on: 786-0
HCC 2998 = tested on: HCC 2998
HT-29 = tested on: HT-29
K562 = tested on: K562
KM12 = tested on: KM12
MCF7 = tested on: MCF7
MDA-MB-231 = tested on: MDA-MB-231
MDA-N = tested on: MDA-N
MOLT-4 = tested on: MOLT-4
Malme-3M = tested on: Malme-3M
NCI-H226 = tested on: NCI-H226
NCI-H522 = tested on: NCI-H522
OVCAR-8 = tested on: OVCAR-8
RXF 393 = tested on: RXF 393
SF-295 = tested on: SF-295
SK-MEL-5 = tested on: SK-MEL-5
SNB-75 = tested on: SNB-75
SR = tested on: SR
SW-620 = tested on: SW-620
U-251 = tested on: U-251

| SMILES | GI50 (786-0) | GI50 (HCC 2998) | GI50 (HT-29) | GI50 (K562) | GI50 (KM12) | GI50 (MCF7) | GI50 (MDA-MB-231) | GI50 (MDA-N) | GI50 (MOLT-4) | GI50 (Malme-3M) | GI50 (NCI-H226) | GI50 (NCI-H522) | GI50 (OVCAR-8) | GI50 (RXF 393) | GI50 (SF-295) | GI50 (SK-MEL-5) | GI50 (SNB-75) | GI50 (SR) | GI50 (SW-620) | GI50 (U-251) |
| --- | --- | --- | --- | --- | --- | --- | --- | --- | --- | --- | --- | --- | --- | --- | --- | --- | --- | --- | --- | --- |
| Nc1ccccc1C(=O)NC(=O)Nc1ccc(Oc2ncc(Br)cn2)c(Cl)c1 | < 0.01 µM (active) | 0.0116 µM (active) | < 0.01 µM (active) | < 0.01 µM (active) | < 0.01 µM (active) | < 0.01 µM (active) | 0.0145 µM (active) | < 0.01 µM (active) | < 0.01 µM (active) | < 0.01 µM (active) | 0.0472 µM (active) | < 0.01 µM (active) | 0.0119 µM (active) | 0.0261 µM (active) | < 0.01 µM (active) | < 0.01 µM (active) | < 0.01 µM (active) | < 0.01 µM (active) | < 0.01 µM (active) | < 0.01 µM (active) |
| O=[N+]([O-])c1ccc(-c2cc(O)c3nc4ccccc4n3c2)cc1 | > 90.6 µM (inactive) | > 100 µM (inactive) | > 100 µM (inactive) | > 100 µM (inactive) | > 100 µM (inactive) | > 84.7 µM (inactive) | > 100 µM (inactive) | > 100 µM (inactive) | > 100 µM (inactive) | > 100 µM (inactive) | > 100 µM (inactive) | > 93.1 µM (inactive) | 60.1 µM (inactive) | > 100 µM (inactive) | > 100 µM (inactive) | > 100 µM (inactive) | > 40.9 µM (inactive) | > 100 µM (inactive) | > 100 µM (inactive) | 28.1 µM (inactive) |
| COc1cc2c(/C=C3/C(=O)N(C)c4ccccc43)c(Cl)[nH]c2cc1C | 0.3 µM (active) | 0.101 µM (active) | 0.328 µM (active) | 0.0966 µM (active) | 0.132 µM (active) | 0.0895 µM (active) | 0.36 µM (active) | 0.0352 µM (active) | 0.282 µM (active) |  | 0.449 µM (active) | 0.183 µM (active) | 0.324 µM (active) | 0.746 µM (active) | 0.0964 µM (active) | 0.185 µM (active) | 0.321 µM (active) | 0.274 µM (active) | 0.33 µM (active) | 0.117 µM (active) |
| C1OCN2c3nonc3N3COCN4c5nonc5N1C2C43 (stereo not given) | > 100 µM (inactive) | 68.4 µM (inactive) | 31.1 µM (inactive) | 78 µM (inactive) | 49.2 µM (inactive) | 49.1 µM (inactive) | > 100 µM (inactive) | 62.8 µM (inactive) | 50.1 µM (inactive) | > 100 µM (inactive) | > 100 µM (inactive) | > 100 µM (inactive) | > 100 µM (inactive) | > 100 µM (inactive) | > 100 µM (inactive) | > 100 µM (inactive) | > 100 µM (inactive) | > 100 µM (inactive) | > 100 µM (inactive) | > 100 µM (inactive) |
| N=C(N)Nc1ccc(CC(N)NCC(=O)O)cc1 (stereo not given) | > 25 µM (inactive) | > 25 µM (inactive) | > 25 µM (inactive) | > 25 µM (inactive) | > 25 µM (inactive) | > 25 µM (inactive) | > 25 µM (inactive) | > 25 µM (inactive) | > 25 µM (inactive) | > 25 µM (inactive) | > 25 µM (inactive) | > 25 µM (inactive) | > 25 µM (inactive) | > 25 µM (inactive) | > 25 µM (inactive) | > 25 µM (inactive) | > 25 µM (inactive) | 20 µM (inactive) | > 25 µM (inactive) | > 25 µM (inactive) |
| C[C@]12CC[C@H]3[C@@H](CCC4=CC(=O)CC[C@@]43C)[C@]1(O)CC[C@]2(O)C(=O)CO | > 100 µM (inactive) | > 100 µM (inactive) | > 100 µM (inactive) | > 100 µM (inactive) | > 100 µM (inactive) | > 100 µM (inactive) | > 100 µM (inactive) | > 100 µM (inactive) | > 100 µM (inactive) | > 100 µM (inactive) | > 100 µM (inactive) | > 100 µM (inactive) | > 100 µM (inactive) | > 100 µM (inactive) | > 100 µM (inactive) | > 100 µM (inactive) | > 100 µM (inactive) | > 100 µM (inactive) | > 100 µM (inactive) | > 100 µM (inactive) |
| CC(=O)Nc1ccc(N2C(=O)/C(=C\c3cccc(Oc4ccccc4)c3)S(=O)(=O)C2c2ccccc2)cc1 (stereo not given) | > 100 µM (inactive) | > 100 µM (inactive) | 41.5 µM (inactive) | 37.3 µM (inactive) | > 100 µM (inactive) | 32.2 µM (inactive) | > 100 µM (inactive) | 27.2 µM (inactive) | 28.2 µM (inactive) | > 100 µM (inactive) | 66.2 µM (inactive) | 71.8 µM (inactive) | 35.7 µM (inactive) | > 100 µM (inactive) | 89.5 µM (inactive) | 57.5 µM (inactive) | 81.3 µM (inactive) | 31.4 µM (inactive) | 33.3 µM (inactive) | 39.3 µM (inactive) |
| C/C=C(\C)C(=O)OC1/C=C(\C)CC/C=C(\C)CC2OC(=O)C(C)(OC(C)=O)C12 (stereo not given) | > 100 µM (inactive) | > 100 µM (inactive) | > 100 µM (inactive) | > 100 µM (inactive) | > 100 µM (inactive) | > 100 µM (inactive) | > 100 µM (inactive) | > 100 µM (inactive) | > 100 µM (inactive) | > 100 µM (inactive) | > 100 µM (inactive) | > 100 µM (inactive) | > 100 µM (inactive) | > 100 µM (inactive) | > 100 µM (inactive) | > 100 µM (inactive) | > 100 µM (inactive) | > 100 µM (inactive) | > 100 µM (inactive) | > 100 µM (inactive) |
| O=C(Nc1ccn(C2CC(I)C(COC(c3ccccc3)(c3ccccc3)c3ccccc3)O2)c(=O)n1)c1ccccc1 (stereo not given) | 8.34 µM (inactive) | 12.6 µM (inactive) | 6.5 µM (inactive) | 5.28 µM (inactive) | 7.46 µM (inactive) | 4.86 µM (inactive) | 9.57 µM (inactive) | 7.91 µM (inactive) | 4.13 µM (inactive) | 7.78 µM (inactive) | 8.55 µM (inactive) | 11 µM (inactive) | 9.25 µM (inactive) | 8.59 µM (inactive) | 13.6 µM (inactive) | 9.53 µM (inactive) | 2.43 µM (inactive) | 0.6 µM (active) | 14 µM (inactive) | 10.1 µM (inactive) |
| O=S(=O)(/C=C/C=C/S(=O)(=O)c1ccccc1)c1ccccc1 | 0.537 µM (active) | 11.5 µM (inactive) | 1.18 µM (inactive) | 0.269 µM (active) | 2.29 µM (inactive) | 0.845 µM (active) | 1.56 µM (inactive) | 1.24 µM (inactive) | 0.315 µM (active) | 1.17 µM (inactive) | 7.62 µM (inactive) | 0.174 µM (active) | 0.573 µM (active) | 0.36 µM (active) | 10.4 µM (inactive) | 0.853 µM (active) | 6.61 µM (inactive) | 0.285 µM (active) | 0.172 µM (active) | 4.12 µM (inactive) |
| Br[C@@H]1[C@H]2c3nc4ccccc4nc3[C@@H]1C[C@H]2Br | > 100 µM (inactive) | > 100 µM (inactive) | 58.6 µM (inactive) | 47.5 µM (inactive) | 51.4 µM (inactive) | 81.7 µM (inactive) | > 100 µM (inactive) | > 100 µM (inactive) | 31.7 µM (inactive) | > 100 µM (inactive) | 31.3 µM (inactive) | 54.8 µM (inactive) | > 100 µM (inactive) | 37.7 µM (inactive) | 74.3 µM (inactive) | 26.5 µM (inactive) |  | 48.9 µM (inactive) | > 100 µM (inactive) | 69.2 µM (inactive) |
| COP(=O)(OC)/C(=C\c1cn(C(c2ccccc2)(c2ccccc2)c2ccccc2)cn1)NC(C)=O | > 100 µM (inactive) | > 100 µM (inactive) | 68.5 µM (inactive) | 51.8 µM (inactive) | 52.4 µM (inactive) | 88.3 µM (inactive) | > 100 µM (inactive) | > 100 µM (inactive) | 34.4 µM (inactive) | > 100 µM (inactive) | > 100 µM (inactive) | > 100 µM (inactive) | > 100 µM (inactive) | 30.6 µM (inactive) | > 100 µM (inactive) |  | > 100 µM (inactive) | 81.8 µM (inactive) | > 100 µM (inactive) | > 100 µM (inactive) |
| CC(=O)c1ccc(Br)cc1NC1=CC(=O)c2ncccc2C1=O | 3.71 µM (inactive) | 3.22 µM (inactive) | 3.24 µM (inactive) | 1.49 µM (inactive) | 1.83 µM (inactive) | 1.38 µM (inactive) | 1.88 µM (inactive) | 1.81 µM (inactive) | 2.29 µM (inactive) | 1.64 µM (inactive) | 3.64 µM (inactive) | 3.27 µM (inactive) | 5.53 µM (inactive) | 5.13 µM (inactive) | 4.62 µM (inactive) | 0.322 µM (active) | 0.242 µM (active) | 2.22 µM (inactive) |  | 6.22 µM (inactive) |
| CCCCCCCCC/C=C1/CC(CO)(COC(=O)c2ccccc2)OC1=O (stereo not given) | 10.4 µM (inactive) | 14.6 µM (inactive) | 17.7 µM (inactive) | 3.89 µM (inactive) | 16.7 µM (inactive) | 16.3 µM (inactive) | 12.6 µM (inactive) | 6.01 µM (inactive) | 4.98 µM (inactive) | 6.92 µM (inactive) | 10.5 µM (inactive) | 13.7 µM (inactive) |  | 15.6 µM (inactive) | 10 µM (inactive) | 3.78 µM (inactive) | 10.2 µM (inactive) | 17.9 µM (inactive) | 14.4 µM (inactive) | 14 µM (inactive) |
